Measured values taken from the supplement of paper PMC12463676, “Small-molecule dissolution of stress granules by redox modulation benefits ALS models” (Nature Chemical Biology, 2025).

Tests used:
potassium arsenate = compound: O=[As]([O-])(O)O.[K+] [potassium arsenate]; experiment: thermal stability z-score vs DMSO; higher = more thermally stabilized by treatment; settings: HeLa; arsenate concentration 1 mM
Description: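 Cellular thermal proteome profiling in HeLa cells treated with 1 mM arsenate for 1 h (DMSO pretreatment), heated to ten temperatures (37-66.3 °C). Soluble protein was quantified by TMT mass spectrometry relative to DMSO controls; the thermal stability score was transformed to a z-score; mean of n = 3 experiments.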

lipoamide = compound: NC(=O)CCCCC1CCSS1 [lipoamide]; experiment: as above; settings: HeLa, lipoamide concentration 100 µM
Description: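 Cellular thermal proteome profiling in HeLa cells. Cells were treated with 100 µM lipoamide for 1 h, with or without 1 mM arsenate for a further 1 h, then heated to ten temperatures (37-66.3 °C), and soluble protein was quantified by TMT mass spectrometry relative to 0.1% DMSO controls. The thermal stability score (sum of log2 fold changes minus the abundance score) was transformed to a z-score; mean of n = 3 experiments.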

[1] = arsenate co-treatment: 1 mM arsenate 1 h
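Also: each temperature applied for 3 min, abundance score taken as mean log2 fold change at the two lowest temperatures, z-score obtained by mean subtraction and division by SD.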

Sequence of UniProt O60513 (O60513 whole entry): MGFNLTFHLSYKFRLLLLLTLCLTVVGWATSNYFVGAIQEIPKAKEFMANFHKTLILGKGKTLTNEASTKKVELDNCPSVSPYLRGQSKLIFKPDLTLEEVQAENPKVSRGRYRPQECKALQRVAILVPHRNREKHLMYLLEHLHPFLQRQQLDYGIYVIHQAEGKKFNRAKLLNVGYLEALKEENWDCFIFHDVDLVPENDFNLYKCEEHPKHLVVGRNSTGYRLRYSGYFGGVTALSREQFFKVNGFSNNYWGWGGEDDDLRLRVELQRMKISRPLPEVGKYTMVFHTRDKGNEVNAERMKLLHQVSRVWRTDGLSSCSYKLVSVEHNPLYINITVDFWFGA
Sequence of UniProt Q9UIG0 (Q9UIG0 whole entry): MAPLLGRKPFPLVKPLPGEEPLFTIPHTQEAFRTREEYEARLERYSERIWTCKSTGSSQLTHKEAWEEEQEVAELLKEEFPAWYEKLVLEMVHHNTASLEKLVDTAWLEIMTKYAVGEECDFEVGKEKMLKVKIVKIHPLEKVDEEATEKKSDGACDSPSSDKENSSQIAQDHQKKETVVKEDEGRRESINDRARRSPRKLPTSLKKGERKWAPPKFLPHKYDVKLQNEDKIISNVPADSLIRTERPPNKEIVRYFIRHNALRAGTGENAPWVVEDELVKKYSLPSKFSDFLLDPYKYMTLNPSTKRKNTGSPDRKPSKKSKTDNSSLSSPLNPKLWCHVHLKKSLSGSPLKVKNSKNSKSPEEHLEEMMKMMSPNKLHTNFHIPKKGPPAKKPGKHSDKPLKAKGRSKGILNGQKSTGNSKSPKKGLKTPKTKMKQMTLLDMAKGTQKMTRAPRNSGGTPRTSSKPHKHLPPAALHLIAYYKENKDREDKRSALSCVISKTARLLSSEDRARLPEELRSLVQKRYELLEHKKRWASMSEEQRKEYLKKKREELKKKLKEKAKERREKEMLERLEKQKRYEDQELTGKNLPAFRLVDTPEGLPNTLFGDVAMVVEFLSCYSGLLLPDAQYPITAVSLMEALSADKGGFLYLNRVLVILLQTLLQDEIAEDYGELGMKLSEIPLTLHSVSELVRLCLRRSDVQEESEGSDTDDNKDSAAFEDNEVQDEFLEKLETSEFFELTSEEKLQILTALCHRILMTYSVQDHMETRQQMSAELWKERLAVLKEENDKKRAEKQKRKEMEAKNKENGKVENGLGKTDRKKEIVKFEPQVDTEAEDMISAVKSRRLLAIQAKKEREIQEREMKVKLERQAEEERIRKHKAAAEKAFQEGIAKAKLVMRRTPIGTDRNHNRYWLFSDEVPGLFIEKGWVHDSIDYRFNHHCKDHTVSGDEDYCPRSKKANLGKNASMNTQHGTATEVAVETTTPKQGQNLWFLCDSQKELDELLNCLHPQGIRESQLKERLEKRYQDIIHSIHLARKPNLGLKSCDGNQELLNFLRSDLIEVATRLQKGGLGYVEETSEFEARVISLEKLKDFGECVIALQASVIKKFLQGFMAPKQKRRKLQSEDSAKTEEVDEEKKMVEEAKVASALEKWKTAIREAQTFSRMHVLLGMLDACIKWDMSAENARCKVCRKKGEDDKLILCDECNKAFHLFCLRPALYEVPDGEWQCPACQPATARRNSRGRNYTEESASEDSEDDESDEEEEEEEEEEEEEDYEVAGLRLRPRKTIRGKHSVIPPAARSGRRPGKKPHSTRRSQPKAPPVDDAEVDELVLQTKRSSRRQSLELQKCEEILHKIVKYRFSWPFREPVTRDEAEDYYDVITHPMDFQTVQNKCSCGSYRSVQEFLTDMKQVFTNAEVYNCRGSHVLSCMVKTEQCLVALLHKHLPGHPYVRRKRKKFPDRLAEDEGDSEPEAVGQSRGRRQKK
Sequence of UniProt O43505 (O43505 whole entry, one chain of several): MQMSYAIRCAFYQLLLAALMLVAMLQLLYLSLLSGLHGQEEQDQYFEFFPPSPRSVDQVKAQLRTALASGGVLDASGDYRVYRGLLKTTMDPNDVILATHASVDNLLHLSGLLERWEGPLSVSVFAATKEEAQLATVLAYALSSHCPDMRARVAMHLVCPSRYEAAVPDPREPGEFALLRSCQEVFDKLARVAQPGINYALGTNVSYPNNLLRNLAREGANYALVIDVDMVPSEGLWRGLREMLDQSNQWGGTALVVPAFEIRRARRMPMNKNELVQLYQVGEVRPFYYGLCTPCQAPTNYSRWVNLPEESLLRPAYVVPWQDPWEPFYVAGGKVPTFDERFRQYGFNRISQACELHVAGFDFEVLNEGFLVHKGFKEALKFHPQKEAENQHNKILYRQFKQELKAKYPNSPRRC
Sequence of UniProt Q9NWV8 (Q9NWV8 whole entry): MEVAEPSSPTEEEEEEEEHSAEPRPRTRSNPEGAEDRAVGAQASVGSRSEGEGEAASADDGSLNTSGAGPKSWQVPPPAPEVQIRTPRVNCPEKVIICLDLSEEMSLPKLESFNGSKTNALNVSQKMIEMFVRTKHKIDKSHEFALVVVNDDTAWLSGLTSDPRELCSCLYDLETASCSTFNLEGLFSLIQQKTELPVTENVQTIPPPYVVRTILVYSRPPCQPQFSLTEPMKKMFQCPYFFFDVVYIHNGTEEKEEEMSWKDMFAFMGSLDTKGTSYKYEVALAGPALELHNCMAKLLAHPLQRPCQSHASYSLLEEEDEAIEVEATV
Sequence of UniProt O00512 (O00512 whole entry): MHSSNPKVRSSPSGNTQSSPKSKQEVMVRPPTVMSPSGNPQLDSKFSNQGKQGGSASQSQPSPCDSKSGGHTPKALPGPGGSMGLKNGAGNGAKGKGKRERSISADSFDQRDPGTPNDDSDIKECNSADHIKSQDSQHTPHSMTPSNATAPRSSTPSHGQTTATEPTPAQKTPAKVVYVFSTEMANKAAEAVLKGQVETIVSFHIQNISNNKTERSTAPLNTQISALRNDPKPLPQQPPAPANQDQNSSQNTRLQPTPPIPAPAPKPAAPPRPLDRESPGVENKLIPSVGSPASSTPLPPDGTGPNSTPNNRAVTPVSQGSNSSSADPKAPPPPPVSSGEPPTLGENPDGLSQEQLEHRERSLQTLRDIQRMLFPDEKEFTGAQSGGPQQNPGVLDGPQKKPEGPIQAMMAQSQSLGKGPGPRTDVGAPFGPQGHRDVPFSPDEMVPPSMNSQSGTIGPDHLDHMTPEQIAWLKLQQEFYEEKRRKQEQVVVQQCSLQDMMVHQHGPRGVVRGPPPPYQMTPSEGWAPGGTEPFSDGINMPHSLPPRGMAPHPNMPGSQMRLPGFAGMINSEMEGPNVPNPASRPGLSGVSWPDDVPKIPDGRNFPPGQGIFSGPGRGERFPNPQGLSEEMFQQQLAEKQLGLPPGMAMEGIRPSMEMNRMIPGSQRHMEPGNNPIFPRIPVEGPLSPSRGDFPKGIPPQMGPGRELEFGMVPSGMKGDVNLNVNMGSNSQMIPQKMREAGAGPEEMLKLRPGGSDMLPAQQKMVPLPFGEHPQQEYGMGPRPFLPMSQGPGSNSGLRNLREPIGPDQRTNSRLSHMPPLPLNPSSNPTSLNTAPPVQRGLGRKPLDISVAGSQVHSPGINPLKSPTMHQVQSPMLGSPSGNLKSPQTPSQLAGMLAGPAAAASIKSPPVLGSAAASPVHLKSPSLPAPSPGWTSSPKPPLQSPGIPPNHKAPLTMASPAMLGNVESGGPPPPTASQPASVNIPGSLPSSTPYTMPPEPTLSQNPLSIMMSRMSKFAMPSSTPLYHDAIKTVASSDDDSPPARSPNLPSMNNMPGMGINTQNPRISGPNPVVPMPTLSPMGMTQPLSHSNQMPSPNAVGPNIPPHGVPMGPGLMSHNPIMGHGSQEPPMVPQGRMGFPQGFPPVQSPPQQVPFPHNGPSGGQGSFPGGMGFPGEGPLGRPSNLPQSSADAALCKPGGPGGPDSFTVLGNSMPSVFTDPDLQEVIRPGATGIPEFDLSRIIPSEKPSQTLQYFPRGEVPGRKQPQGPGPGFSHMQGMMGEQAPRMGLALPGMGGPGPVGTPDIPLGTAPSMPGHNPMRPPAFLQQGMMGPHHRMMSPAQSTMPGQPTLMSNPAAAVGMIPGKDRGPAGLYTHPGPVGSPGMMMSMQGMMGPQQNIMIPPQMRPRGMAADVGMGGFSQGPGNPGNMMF
Sequence of UniProt Q9NYF8 (Q9NYF8 whole entry): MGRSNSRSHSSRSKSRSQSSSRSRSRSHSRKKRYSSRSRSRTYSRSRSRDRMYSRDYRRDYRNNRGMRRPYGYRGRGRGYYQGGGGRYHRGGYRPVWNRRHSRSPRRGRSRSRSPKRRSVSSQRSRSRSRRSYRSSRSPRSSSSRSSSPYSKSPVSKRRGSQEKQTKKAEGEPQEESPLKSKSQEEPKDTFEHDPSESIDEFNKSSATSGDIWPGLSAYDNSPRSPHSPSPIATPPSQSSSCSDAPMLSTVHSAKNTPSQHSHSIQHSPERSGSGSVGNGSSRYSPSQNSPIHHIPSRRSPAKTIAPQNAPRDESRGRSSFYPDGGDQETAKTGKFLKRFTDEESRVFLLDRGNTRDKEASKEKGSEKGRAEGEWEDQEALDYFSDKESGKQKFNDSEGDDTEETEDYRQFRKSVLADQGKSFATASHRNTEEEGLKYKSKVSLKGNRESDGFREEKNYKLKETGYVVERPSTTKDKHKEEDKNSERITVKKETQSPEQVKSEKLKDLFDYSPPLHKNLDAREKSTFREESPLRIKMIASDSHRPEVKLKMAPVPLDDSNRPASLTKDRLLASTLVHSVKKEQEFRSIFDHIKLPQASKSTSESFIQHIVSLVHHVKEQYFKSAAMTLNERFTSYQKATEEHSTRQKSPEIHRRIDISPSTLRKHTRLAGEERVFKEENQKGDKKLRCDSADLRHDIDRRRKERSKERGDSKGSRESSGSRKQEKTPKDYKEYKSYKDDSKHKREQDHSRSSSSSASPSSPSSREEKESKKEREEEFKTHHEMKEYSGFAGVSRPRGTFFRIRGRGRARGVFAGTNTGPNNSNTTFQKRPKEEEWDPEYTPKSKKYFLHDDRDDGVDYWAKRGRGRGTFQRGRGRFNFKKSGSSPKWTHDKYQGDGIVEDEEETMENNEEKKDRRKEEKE
Sequence of UniProt O75531 (O75531 whole entry): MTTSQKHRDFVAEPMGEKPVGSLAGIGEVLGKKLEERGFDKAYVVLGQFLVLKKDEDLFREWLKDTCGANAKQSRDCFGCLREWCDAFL

Target	thermal stability z-score (potassium arsenate)	thermal stability z-score (lipoamide; [1])	thermal stability z-score (lipoamide; arsenate co-treatment: none)
ATXN2 (UniProt Q99700)	-0.245	0.168	0.133
ATXN2L (UniProt Q8WWM7)	-0.118	0.44	0.347
ATXN3 (UniProt P54252)	-0.115	0.199	0.278
ATXN10 (UniProt Q9UBB4)	-1.03	0.258	0.374
AUH (UniProt Q13825)	0.0655	-0.0558	0.0366
AUP1 (UniProt Q9Y679)	-0.628	-0.649	-1.09
AURKA (UniProt O14965)	-0.391	-0.091	-0.269
AVEN (UniProt Q9NQS1)	-0.823	0.134	-0.00487
AVL9 (UniProt Q8NBF6)	0.203	0.0764	0.143
AXL (UniProt P30530)	0.0984	0.0102	0.0513
AZIN1 (UniProt O14977)	0.62	0.745	0.806
B2M (UniProt P61769)	1.06	-0.115	-0.125
B3GALNT2 (UniProt Q8NCR0)	-1.27	-0.788	-0.394
B3GAT3 (UniProt O94766)	0.0971	-0.54	-0.00376
B3GLCT (UniProt Q6Y288)	0.968	-0.669	-1.54
B4GALT1 (UniProt P15291)	0.0478	-0.454	-0.565
B4GALT4 (UniProt O60513)	0.252	-0.0137	-0.101
B4GALT5 (UniProt O43286)	-0.0207	-0.000852	-0.338
B4GAT1 (UniProt O43505)	0.0622	-0.309	-0.831
BABAM1 (UniProt Q9NWV8)	-0.323	0.196	0.129
BACE2 (UniProt Q9Y5Z0)	1.09	-0.766	-0.974
BACH1 (UniProt O14867)	0.169	-0.551	-0.333
BAG1 (UniProt Q99933)	-0.464	-0.351	0.0085
BAG2 (UniProt O95816)	-0.106	0.187	0.292
BAG3 (UniProt O95817)	0.236	-0.145	0.303
BAG4 (UniProt O95429)	0.76	0.25	0.752
BAG5 (UniProt Q9UL15)	-0.198	0.228	0.437
BAIAP2 (UniProt Q9UQB8)	-0.138	0.142	0.0757

Target	thermal stability z-score (potassium arsenate)	thermal stability z-score (lipoamide; [1])	thermal stability z-score (lipoamide; arsenate co-treatment: none)
BAIAP2L1 (UniProt Q9UHR4)	0.177	0.0217	-0.166
BANF1 (UniProt O75531)	-2.36	0.324	-0.358
BASP1 (UniProt P80723)	-0.142	0.861	0.592
BAT3|BAG6	0.518	-0.102	-0.0326
BAX (UniProt Q07812)	1.46	0.343	1.42
BAZ1A (UniProt Q9NRL2)	-0.236	-0.258	0.0591
BAZ1B (UniProt Q9UIG0)	0.21	-0.152	-0.073
BBX (UniProt Q8WY36)	-0.402	-0.177	-0.12
BCAP29 (UniProt Q9UHQ4)	-0.458	0.262	0.211
BCAP31 (UniProt P51572)	-0.144	0.0788	0.099
BCAR1 (UniProt P56945)	-0.154	-0.559	-0.583
BCAR3 (UniProt O75815)	-0.106	-0.0123	-0.0689
BCAS2 (UniProt O75934)	0.558	0.913	0.747
BCAS3 (UniProt Q9H6U6)	-0.0972	-0.0897	0.561
BCAT2 (UniProt O15382)	1.1	0.516	0.0921
BCCIP (UniProt Q9P287)	-0.181	0.431	-0.061
BCKDHB (UniProt P21953)	1.11	0.134	0.149
BCKDK (UniProt O14874)	0.935	0.0555	-0.559
BCL2L13 (UniProt Q9BXK5)	0.655	0.605	0.206
BCL3 (UniProt P20749)	-0.0259	-0.234	0.114
BCL7B (UniProt Q9BQE9)	0.537	3.46	2.78
BCL7C (UniProt Q8WUZ0)	0.0252	0.0654	0.0122
BCL9 (UniProt O00512)	0.421	0.363	1.23
BCL9L (UniProt Q86UU0)	-0.128	0.0577	0.096
BCL10 (UniProt O95999)	2.16	0.00285	0.509
BCLAF1 (UniProt Q9NYF8)	-1.11	1.93	0.229
BCOR (UniProt Q6W2J9)	-0.011	0.0203	0.0502
